This passage reports EC50 results from patent US20140045823A1 (Neurocrine Biosciences, Inc., priority 2012, published 2014).

As usually defined, the EC50 is the concentration at which the effect is half-maximal. Lower therefore signals an effect from little substance.

The structures appear in SMILES notation.

The target in this assay is T1, human GPR119 (Homo sapiens, UniProt Q8TDV5).
T1 construct: expression vector for human GPR119 cDNA (Acc. No. NP_848566); expressed in transfected cells; Min-6/hGPR119
T1 sequence (Q8TDV5 1-335): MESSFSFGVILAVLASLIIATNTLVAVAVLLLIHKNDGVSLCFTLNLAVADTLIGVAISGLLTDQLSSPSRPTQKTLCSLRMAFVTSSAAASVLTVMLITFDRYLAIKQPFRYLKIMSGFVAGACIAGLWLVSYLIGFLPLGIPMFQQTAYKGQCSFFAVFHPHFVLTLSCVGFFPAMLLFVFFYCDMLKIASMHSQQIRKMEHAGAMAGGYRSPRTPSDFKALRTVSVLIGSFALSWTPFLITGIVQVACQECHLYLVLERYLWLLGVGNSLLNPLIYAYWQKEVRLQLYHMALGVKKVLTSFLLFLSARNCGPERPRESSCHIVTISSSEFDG
Kind of assay: AlphaScreen cAMP assay in MIN6 cells stably transfected with human GPR119. As to conditions: Min-6/hGPR119 cells, 45 min at room temperature. The assay is classed as cell-based. In short, it runs like this:
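cAMP accumulation quantified by AlphaScreen after 45 min compound stimulation at about 20 °C. Stimulation buffer: pH 7.4 HEPES saline with 0.5 mM IBMX, 0.1% BSA, 1% DMSO final. Cells: MIN6 stably transfected with human GPR119, 10000/well, cultured 24 h beforehand.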
(In Alpha technology, singlet oxygen from a donor bead excites a nearby acceptor bead.)
Take `Cc1nc(CNC(=O)c2ccc(-c3ncc(C(=O)N(C4CC4)C4CCN(C(=O)OC(C)(C)C)CC4)cn3)cc2F)cs1` [Example 119, 4-[Cyclopropyl-(2-{3-fluoro-4-[(2-methyl-thiazol-4-ylmethyl)-carbamoyl]-phenyl}-pyrimidine-5-carbonyl)-amino]-piperidine-1-carboxylic acid tert-butyl ester]: the EC50 worked out at 147 nM. For `COc1ccc(NC(=O)c2ccc(-c3ncc(C(=O)N(C4CC4)C4CCN(C(=O)OC(C)(C)C)CC4)cn3)cc2F)c(OC)c1` [Example 120, 4-(Cyclopropyl-{2-[4-(2,4-dimethoxy-phenylcarbamoyl)-3-fluoro-phenyl]-pyrimidine-5-carbonyl}-amino)-piperidine-1-carboxylic acid tert-butyl ester], the response was half-maximal at 212 nM (EC50). As for `CC(C)(C)OC(=O)N1CCC(N(C(=O)c2cnc(-c3ccc(C(=O)Nc4ccc(CO)cc4)c(F)c3)nc2)C2CC2)CC1` [Example 121, 4-(Cyclopropyl-{2-[3-fluoro-4-(4-hydroxymethyl-phenylcarbamoyl)-phenyl]-pyrimidine-5-carbonyl}-amino)-piperidine-1-carboxylic acid tert-butyl ester], the EC50 turned out to be 180 nM. With `COc1ccc(NC(=O)c2ccc(-c3ncc(C(=O)N(C4CC4)C4CCN(C(=O)OC(C)(C)C)CC4)cn3)cc2F)cn1` [Example 122, 4-(Cyclopropyl-{2-[3-fluoro-4-(6-methoxy-pyridin-3-ylcarbamoyl)-phenyl]-pyrimidine-5-carbonyl}-amino)-piperidine-1-carboxylic acid tert-butyl ester], the EC50 is 55 nM. In the case of `CC(C)(C)OC(=O)N1CCC(N(C(=O)c2cnc(-c3ccc(C(=O)NCCS(C)(=O)=O)c(F)c3)nc2)C2CC2)CC1` [Example 123, 4-(Cyclopropyl-{2-[3-fluoro-4-(2-methanesulfonyl-ethylcarbamoyl)-phenyl]-pyrimidine-5-carbonyl}-amino)-piperidine-1-carboxylic acid tert-butyl ester], the response was half-maximal at 637 nM (EC50). Consider `CN(CCOCC1CC1)C(=O)c1ccc(-c2ncc(C(=O)N(C3CC3)C3CCN(C(=O)OC(C)(C)C)CC3)cn2)cc1F` [Example 124, 4-[Cyclopropyl-(2-{4-[(2-cyclopropylmethoxy-ethyl)-methyl-carbamoyl]-3-fluoro-phenyl}-pyrimidine-5-carbonyl)-amino]-piperidine-1-carboxylic acid tert-butyl ester], for which it took 102 nM to reach a half-maximal effect (EC50). The figure for `CC(C)(C)OC(=O)N1CCC(N(C(=O)c2cnc(-c3ccc(C(=O)N4CCC[C@H]4C#N)c(F)c3)nc2)C2CC2)CC1` [Example 125, 4-({2-[4-(2-Cyano-pyrrolidine-1-carbonyl)-3-fluoro-phenyl]-pyrimidine-5-carbonyl}-cyclopropyl-amino)-piperidine-1-carboxylic acid tert-butyl ester] is 180 nM; for `CC(C)(C)OC(=O)N1CCC(N(C(=O)c2cnc(-c3ccc(C(=O)NCc4ccncc4)c(F)c3)nc2)C2CC2)CC1` [Example 126, 4-[Cyclopropyl-(2-{3-fluoro-4-[(pyridin-4-ylmethyl)-carbamoyl]-phenyl}-pyrimidine-5-carbonyl)-amino]-piperidine-1-carboxylic acid tert-butyl ester] it is 99 nM.

`CN(Cc1cccnc1)C(=O)c1ccc(-c2ncc(C(=O)N(C3CC3)C3CCN(C(=O)OC(C)(C)C)CC3)cn2)cc1F` [Example 127, 4-(Cyclopropyl-{2-[3-fluoro-4-(methyl-pyridin-3-ylmethyl-carbamoyl)-phenyl]-pyrimidine-5-carbonyl}-amino)-piperidine-1-carboxylic acid tert-butyl ester]: the EC50 came to 108 nM. This EC50 and that of the molecule before are within 1.5-fold of each other. `CC(C)(C)OC(=O)N1CCC(N(C(=O)c2cnc(-c3ccc(C(=O)NCC4CCOCC4)c(F)c3)nc2)C2CC2)CC1` [Example 128, 4-[Cyclopropyl-(2-{3-fluoro-4-[(tetrahydro-pyran-4-ylmethyl)-carbamoyl]-phenyl}-pyrimidine-5-carbonyl)-amino]-piperidine-1-carboxylic acid tert-butyl ester] returned an EC50 of 156 nM. This EC50 and that of the molecule before are within 1.5-fold of each other. In the case of `CC(C)(C)OC(=O)N1CCC(N(C(=O)c2cnc(-c3ccc(C(=O)N4CCCC(CO)C4)c(F)c3)nc2)C2CC2)CC1` (centres unmarked) [Example 129, 4-(Cyclopropyl-{2-[3-fluoro-4-(3-hydroxymethyl-piperidine-1-carbonyl)-phenyl]-pyrimidine-5-carbonyl}-amino)-piperidine-1-carboxylic acid tert-butyl ester], the EC50 was found to be 548 nM. Compared with the last molecule, the EC50 is about 3.5-fold higher. The figure for `COCC(C)NC(=O)c1ccc(-c2ncc(C(=O)N(C3CC3)C3CCN(C(=O)OC(C)(C)C)CC3)cn2)cc1F` (centres unmarked) [Example 130, 4-(Cyclopropyl-{2-[3-fluoro-4-(2-methoxy-1-methyl-ethylcarbamoyl)-phenyl]-pyrimidine-5-carbonyl}-amino)-piperidine-1-carboxylic acid tert-butyl ester] is 193 nM.

The molecule `CC(C)(C)OC(=O)N1CCC(N(C(=O)c2cnc(-c3ccc(C(=O)NCC4CCOC4)c(F)c3)nc2)C2CC2)CC1` (centres unmarked) [Example 131, 4-[Cyclopropyl-(2-{3-fluoro-4-[(tetrahydro-furan-3-ylmethyl)-carbamoyl]-phenyl}-pyrimidine-5-carbonyl)-amino]-piperidine-1-carboxylic acid tert-butyl ester] showed an EC50 of 175 nM. Turning to `CN(CC#N)C(=O)c1ccc(-c2ncc(C(=O)N(C3CC3)C3CCN(C(=O)OC(C)(C)C)CC3)cn2)cc1F` [Example 132, 4-({2-[4-(Cyanomethyl-methyl-carbamoyl)-3-fluoro-phenyl]-pyrimidine-5-carbonyl}-cyclopropyl-amino)-piperidine-1-carboxylic acid tert-butyl ester], the EC50 was 98 nM. In turn, `COC1CCN(C(=O)c2ccc(-c3ncc(C(=O)N(C4CC4)C4CCN(C(=O)OC(C)(C)C)CC4)cn3)c(F)c2)CC1` [Example 133, 4-(Cyclopropyl-{2-[2-fluoro-4-(4-methoxy-piperidine-1-carbonyl)-phenyl]-pyrimidine-5-carbonyl}-amino)-piperidine-1-carboxylic acid tert-butyl ester] gave an EC50 of 516 nM. This EC50 is about 5.3-fold higher than that of the molecule before. For the molecule `COC[C@H]1CCCN1C(=O)c1ccc(-c2ncc(C(=O)N(C3CC3)C3CCN(C(=O)OC(C)(C)C)CC3)cn2)c(F)c1` [Example 134, 4-(Cyclopropyl-{2-[2-fluoro-4-(2-methoxymethyl-pyrrolidine-1-carbonyl)-phenyl]-pyrimidine-5-carbonyl}-amino)-piperidine-1-carboxylic acid tert-butyl ester], a half-maximal response (EC50) required 561 nM. The figure for `COCC(C)N(C)C(=O)c1ccc(-c2ncc(C(=O)N(C3CC3)C3CCN(C(=O)OC(C)(C)C)CC3)cn2)c(F)c1` (centres unmarked) [Example 135, 4-[Cyclopropyl-(2-{2-fluoro-4-[(2-methoxy-1-methyl-ethyl)-methyl-carbamoyl]-phenyl}-pyrimidine-5-carbonyl)-amino]-piperidine-1-carboxylic acid tert-butyl ester] is 914 nM; for `Cn1ccc(CNC(=O)c2ccc(-c3ncc(C(=O)N(C4CC4)C4CCN(C(=O)OC(C)(C)C)CC4)cn3)cc2F)n1` [Example 136, 4-[Cyclopropyl-(2-{3-fluoro-4-[(1-methyl-1H-pyrazol-3-ylmethyl)-carbamoyl]-phenyl}-pyrimidine-5-carbonyl)-amino]-piperidine-1-carboxylic acid tert-butyl ester] it is 194 nM.

Turning to `COC1CN(C(=O)c2ccc(-c3ncc(C(=O)N(C4CC4)C4CCN(C(=O)OC(C)(C)C)CC4)cn3)cc2F)C1` [Example 137, 4-(Cyclopropyl-{2-[3-fluoro-4-(3-methoxy-azetidine-1-carbonyl)-phenyl]-pyrimidine-5-carbonyl}-amino)-piperidine-1-carboxylic acid tert-butyl ester], a half-maximal response (EC50) required 264 nM. The figure for `CN(CCOCC1CC1)C(=O)c1ccc(-c2ncc(C(=O)N(C3CC3)C3CCN(C(=O)OC(C)(C)C)CC3)cn2)c(F)c1` [Example 138, 4-[Cyclopropyl-(2-{4-[(2-cyclopropylmethoxy-ethyl)-methyl-carbamoyl]-2-fluoro-phenyl}-pyrimidine-5-carbonyl)-amino]-piperidine-1-carboxyli acid tert-butyl ester] is 346 nM; for `CN(Cc1ccncc1)C(=O)c1ccc(-c2ncc(C(=O)N(C3CC3)C3CCN(C(=O)OC(C)(C)C)CC3)cn2)cc1F` [Example 139, 4-(Cyclopropyl-{2-[3-fluoro-4-(methyl-pyridin-4-ylmethyl-carbamoyl)-phenyl]-pyrimidine-5-carbonyl}-amino)-piperidine-1-carboxylic acid tert-butyl ester] it is 263 nM; for `CN(CC#N)C(=O)c1ccc(-c2ncc(C(=O)N(C3CC3)C3CCN(C(=O)OC(C)(C)C)CC3)cn2)c(F)c1` [Example 140, 4-({2-[4-(Cyanomethyl-methyl-carbamoyl)-2-fluoro-phenyl]-pyrimidine-5-carbonyl}-cyclopropyl-amino)-piperidine-1-carboxylic acid tert-butyl ester] it is 441 nM. As to `CC(C)(C)OC(=O)N1CCC(N(C(=O)c2cnc(-c3ccc(C(=O)N4CCC(O)(C(F)(F)F)CC4)c(F)c3)nc2)C2CC2)CC1` [Example 141, 4-(Cyclopropyl-{2-[3-fluoro-4-(4-hydroxy-4-trifluoromethyl-piperidine-1-carbonyl)-phenyl]-pyrimidine-5-carbonyl}-amino)-piperidine-1-carboxylic acid tert-butyl ester], the EC50 worked out at 231 nM.
